Format in all cases: in vivo
The test system of assay [1] is Eclipta prostrata. Briefly: Indoor herbicide activity determination, post-emergence (stem and leaf spray at 2-4 leaf stage). The conditions noted are these: 504 h, 60 g a.i./ha, determined 21 days later, read-out: Inhibition rate of fresh weight, Eclipta prostrata. Put shortly:
(§1)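 Potted weeds in sandy nutrient soil (pH 6.1, 1% organic matter) were grown in a constant-temperature illuminated room to the 2-4 leaf stage, then given a stem-and-leaf spray. Plants went back to the culture room once the spray had dried in shade. At 21 days, fresh weight inhibition % was calculated relative to untreated control plants.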

In assay [2] the test system is Digitaria sanguinalis. The assay is described as above. The following applies: 504 h, 60 g a.i./ha, determined 21 days later, read-out: Inhibition rate of fresh weight, Digitaria sanguinalis. Summed up: as §1
The test system of assay [3] is Cyperus iria. The description is as above. The conditions noted are these: 504 h, 60 g a.i./ha, determined 21 days later, read-out: Inhibition rate of fresh weight, Cyperus iria. Put shortly:
as §1

For assay [4], the system named is Eclipta prostrata. Briefly: Indoor herbicide activity determination, Seed Treatment; pre-emergence (soil spray). The following applies: 120 g a.i./ha, read-out: Herbicidal activities (inhibition rate) Eclipta prostrata. Put shortly:
(§2)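 Herbicide was applied to soil before weed emergence, 24 h after sowing, by tower spraying. Plants grew at constant temperature with illumination, and fresh weight compared with untreated pots gave % inhibition after 21 days.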

In the next assay the test system is Leptochloa chinensis. The description is as above. The conditions noted are these: Dosage 240 g a.i./ha. Put shortly:
as §2

A further assay has as its system Alopecurus japonicus. The description is as above. The following applies: Dosage 240 g a.i./ha. Summed up:
as §2

Another assay relates to Alopecurus myosuroides. The description is as above. The following applies: Dosage 240 g a.i./ha. Put shortly: as §2
A further assay relates to Lolium multiflorum. The assay is described as above. The conditions noted are these: Dosage 240 g a.i./ha. Summed up: as §2
In the next assay the test system is Aegilops tauschii. The description is as above. The following applies: 120 g a.i./ha, read-out: Herbicidal activities (inhibition rate) Aegilops tauschii. Put shortly:
as §2

For assay [5], the system named is Digitaria sanguinalis. The description is as above. The following applies: 120 g a.i./ha, read-out: Herbicidal activities (inhibition rate) Digitaria sanguinalis. Put shortly:
as §2

The subject of another assay is Eleusine indica. Described as above. The following applies: Dosage 240 g a.i./ha. Put shortly: as §2
Assay [6] has as its system Cyperus iria. The description is as above. The conditions noted are these: 120 g a.i./ha, read-out: Herbicidal activities (inhibition rate) Cyperus iria. Put shortly:
as §2

In the case of `COC(=O)[C@H]1C[C@@H](NC(=O)C2(C(F)(F)F)CC(c3cc(F)cc(F)c3)=NO2)C1` (mixture of isomers) [I-208], the inhibition at 60 g/ha with Eclipta prostrata [1], in the assay on Digitaria sanguinalis [2] and with Cyperus iria [3] was 80 to 100% throughout. For the same molecule, the inhibition at 120 g/ha in the assay on Eclipta prostrata [4], in the assay on Aegilops tauschii, in the assay with Digitaria sanguinalis [5] and in the assay on Cyperus iria [6] was 80 to 100% in each case. Further, in the assay with Leptochloa chinensis, the “Herbicidal activities, Leptochloa chinensis (inhibition rate class)” value was “A (A indicates that the inhibition rate was greater than or equal to 80% to 100%)”. In addition, the “Herbicidal activities, Alopecurus japonicus (inhibition rate class)” value in the assay with Alopecurus japonicus is reported as “A (A indicates that the inhibition rate was greater than or equal to 80% to 100%)”. For the same molecule, the “Herbicidal activities, Alopecurus myosuroides (inhibition rate class)” value with Alopecurus myosuroides is recorded as “A (A indicates that the inhibition rate was greater than or equal to 80% to 100%)”. For the same molecule, the “Herbicidal activities, Lolium multiflorum (inhibition rate class)” value in the assay with Lolium multiflorum is “A (A indicates that the inhibition rate was greater than or equal to 80% to 100%)”. In addition, the “Herbicidal activities, Eleusine indica (inhibition rate class)” value in the assay with Eleusine indica is given as “A (A indicates that the inhibition rate was greater than or equal to 80% to 100%)”.

For the origin of these results see patent EP4722201A1, “3-PHENYLISOXAZOLINE-5-CARBOXAMIDE COMPOUND, AND PREPARATION METHOD THEREFOR, HERBICIDAL COMPOSITION THEREOF AND USE THEREOF” (Jiangsu Flag Chemical Industry Co., Ltd, priority 2023, dated 2024).
